From patent US20240000753A1, “METHODS AND COMPOSITIONS TO INCREASE LIFESPAN AND HEALTHSPAN BY MIMICKING THE EFFECTS OF TIME-RESTRICTED FEEDING” (The Trustees of Columbia University in the City of New York, priority 2020, published 2024)

Tested on: Drosophila
Test: Lifespan analysis of flies fed RU486
Assay type: in vivo
Conditions: flies lacking UAS-RNAi transgenes; RU486 fed from day 5 post-eclosion until death (FIG. 5K)
Method: All drugs were supplemented into cooled (65° C.) liquid adult medium (containing 3% yeast extract) following preparation to the following final concentration(s): RU486 (Cayman Chemical) was dissolved in ethanol was supplemented into medium after day 5 of eclosion at a final concentration of 100 μg/mL (with the exception of daGS>UAS-atg1 and controls, 0.5 μg/mL) vehicle controls were supplemented with same volume of ethanol alone. Timed RU486 feeding of daGS>UAS-atg1 consisted of flies being fed 0.5 μg/mL in standard adult media or fasting media only during the fasting phase, then flipped to vehicle control food the following morning only from days 10-40 of adulthood. Vehicle only controls were flipped at the same time for consistency. For gut microbe clearance, the medium contained 500 μg/mL ampicillin, 50 μg/mL tetracycline, and 200 μg/mL rifamycin in 50% ethanol. Same volume of 50% ethanol alone was used as the vehicle control. Drosophila were reared from embryos in low-density bottles with standard yeast cornmeal-agar media listed above (Archon Scientific) Newly eclosed flies (˜24 hours) were collected onto adult medium w/3% yeast extract and allowed to mate for 48 hours. […] Death was scored at time of flipping, and lifespan compared by log-rank analysis.

With `CC#C[C@]1(O)CC[C@H]2[C@@H]3CCC4=CC(=O)CCC4=C3[C@@H](c3ccc(N(C)C)cc3)C[C@@]21C` [RU486] as the compound, how does the “effect on iTRF-mediated lifespan extension” value read?
The value was “no effect”.
